Measurements as given in US20070004674A1, “Remedy for diseases associated with immunoglobulin gene translocation” (Kyowa Hakko Kogyo Co. Ltd., priority 2003, published 2007).

Columns and labels:
multiple myeloma cells = conditions: mice to which multiple myeloma cells were transplanted; Blood, 100, 392 (2002); cited from earlier work
KMS-11 cells [1] = test: Growth inhibition of KMS-11 cells (XTT); assay type: cell-based; conditions: Homo sapiens, 72 hours, calculated from the graph of FIG. 2, read-out: concentration to inhibit cell growth by 50% (GI50 value)
Method: KMS-11 cells diluted to 2×10^5 cells/ml with the culturing medium were pipetted into a 96-well microplate (Nunc) in an amount of 50 μl ([…]) per well. To each well was added 50 μl of a solution prepared by diluting a 10 mmol/l solution of KF58333 in DMSO to 600 nmol/l with the culturing medium and further serially diluting the resulting solution threefold with the culturing medium so as to make the final concentrations of KF58333 of 300, 100, 33.3, 11.1, 3.70 and 1.23 nmol/l, respectively. […] Thereafter, incubation was carried out in a 5% CO2 incubator at 37° C. for 72 hours, and the number of living cells was measured in the following manner. […] Then, the absorbance at 450 nm and 655 nm was measured using a microplate spectrophotometer (Model 550, BIO-RAD). A value (difference in absorbance) was calculated by subtracting the absorbance at 655 nm from that at 450 nm for each well. Since the number of living cells is proportional to the difference in absorbance, the rate (%) of the value of difference in absorbance obtained for cells to which various concentrations of KF58333 were added to that obtained for control cells to which KF58333 was not added when the latter value was designated as 100% was calculated as the rate of the number of living cells to that of control, and the cell growth inhibitory activity of KF58333 was measured.

Raf-1 = test: Western blot: Raf-1 level in KMS-11 cells; assay type: cell-based, human; conditions: KF58333 4.0, 20 and 100 nmol/l, 40 hours, FIG. 1
Method: (§1) KMS-11 cells derived from human multiple myeloma [In Vitro Cell. Dev. Biol., 25, 723 (1989)], which were diluted to 10,000 cells/ml with RPMI 1640 medium containing 10% fetal bovine serum (hereinafter referred to as “culturing medium”), were put in plastic culture flasks (125 cm^2, Nunc) in 30 ml portions. KMS-11 cells are reported to be the cells in which a large amount of FGFR3 is expressed as a result of translocation between immunoglobulin gene on 14q32 and FGFR3 gene on 4p16.3 [Blood, 90, 4062 (1997)]. […]
(§2) To the thus recovered cells was added a cooled lysis buffer (50 mmol/l HEPES NaOH, pH 7.4, 250 mmol/l sodium chloride, 1 mmol/l ethylenediamine tetraacetate, 1% Nonidet P-40, 1 mmol/l dithiothreitol, 1 mmol/l phenylmethylsulfonyl fluoride, 5 μg/ml leupeptin), and the mixture was allowed to stand at 4° C. for 30 minutes for cytolysis, followed by centrifugation at 20000 G for 10 minutes. The concentration of proteins in the supernatant thus obtained was measured, and the samples were adjusted so that the amount of proteins per each lane was the same. […]
(§3) The separated protein samples were each transferred to a polyvinylidene difluoride membrane (Millipore). […] The band of each protein was detected by FluorImager (Molecular Dynamics) after reaction with ECF reagent (Molecular Dynamics).

FGFR3 = test: Western blot: intracellular disappearance of FGFR3 in KMS-11 cells; assay type: cell-based, human; conditions: KF58333 4.0, 20 and 100 nmol/l, 40 hours, FIG. 1
Method: as §1, §2, §3

Cdk6 = test: Western blot: Cdk6 level in KMS-11 cells; assay type: cell-based, human; conditions: KF58333 4.0, 20 and 100 nmol/l, 40 hours, FIG. 1
Method: as §1, §2, §3

Erk2 = test: Western blot: Erk2 level in KMS-11 cells; assay type: cell-based, human; conditions: KF58333 4.0, 20 and 100 nmol/l, 40 hours, FIG. 1, Erk2 is not an Hsp90 client protein
Method: as §1, §2, §3

KMS-11 cells [2] = test: In vivo antitumor effect in KMS-11 cell-transplanted mice; conditions: KMS-11 subcutaneous tumor in scid mice, 25 mg/kg intravenously once a day for 5 consecutive days, measured up to day 24, FIG. 3
Method: In vivo antitumor effect of a compound having an inhibitory action on Hsp90 was examined using a human tumor model prepared by transplanting KMS-11 cells to immunodeficient mice as a model of a disease associated with immunoglobulin gene translocations.
KMS-11 cells were cultured in a 5% CO2 incubator at 37° C. using the culturing medium for propagation. One day before transplantation, 0.3 mg/mouse of anti-asialo GM1 antibody was intraperitoneally administered to 10 […] Fox C.B-17/Icr-scidJcl mice (CLEA JAPAN). One day after the administration of the antibody, the cultured KMS-11 cells (1×10^7 cells/mouse) were subcutaneously transplanted to the mice. Fourteen days after the transplantation, the longer diameter and shorter diameter of the tumor subcutaneously grown were measured with slide calipers, and the tumor volume was calculated according to the following equation: Tumor volume V(mm^3)={longer diameter (mm)×[shorter diameter(mm)]^2}/2
At the same time, the body weight of each mouse was measured, and the mice were divided into two groups of 5 mice each so that the tumor volume and the body weight are randomized. The day was defined as day 0 of the administration test, and drug administration was started in the following manner. […]

| SMILES | survival time of mice (multiple myeloma cells) | GI50 (KMS-11 cells [1]) [nM] | intracellular amount of Raf-1 (Western blot) (Raf-1) | intracellular amount of FGFR3 (Western blot) (FGFR3) | intracellular amount of Cdk6 (Western blot) (Cdk6) | intracellular amount of Erk2 (Western blot) (Erk2) | tumor growth (volume ratio V/V0) (KMS-11 cells [2]) |
| --- | --- | --- | --- | --- | --- | --- | --- |
| C=CCNC1=C2C[C@@H](C)C[C@H](OC)[C@H](O)[C@@H](C)/C=C(\C)[C@H](OC(N)=O)[C@@H](OC)/C=C\C=C(/C)C(=O)NC(=CC1=O)C2=O [17-allylamino-17-demethoxy geldanamycin] | extended survival time | – | – | – | – | – | – |
| CC1CC2OC2\C=C/C=C/C(=N\OCCN2CCCC2=O)Cc2c(Cl)c(O)cc(O)c2C(=O)O1 (stereo not shown) [KF58333] | – | 19.8 | disappeared | disappeared | disappeared | no change | apparent suppression of tumor growth |
